Counter-ions that a name gives are not always drawn.
Key:
[1] = tested on: formalin-induced flinching and licking behavior; assay: formalin model of inflammatory pain in rats; assay type: in vivo
[2] = rotarod test, rats; settings: rat, in vivo, 15 min before test
Protocol: The side-effect profile of CHF 3381 was then evaluated in the rotarod test both in mice and rats. The day before the execution of the test, mice and rats were trained to maintain their equilibrium on the test apparatus. For mice, training consisted of 3 subsequent 2 min attempts on a rod rotating from 4.5 r.p.m. to 16.5 r.p.m.; for rats, of 3 subsequent 1 min attempts at 8 rpm (Kinnard and Carr, 1957). The morning of the test day, mice and rats were again tested on the rotarod and only animals able to maintain their equilibrium on the rod were retained for the experimental procedure. CHF 3381 was administered p.o. or i.p. to groups of at least 8 animals 15 min (time of peak effect for neurotoxicity) before the execution of the test. All controls received the corresponding vehicle. The number of mice falling during a 2-min test period and the number of rats falling for 3 subsequent 1-min attempts were used for the calculation of the respective doses at which 50% of the animals display neurotoxicity (TD50).

[3] = tested on: formalin-induced licking and flinching; assay: mice paw formalin test, acute treatment; assay type: in vivo; settings: for Late phase licking/flinching time: 10 to 40 min; for Early phase licking/flinching time: first 5 min
Protocol: The mice paw formalin test was performed as described by Wheeler-Aceto et al. (Psychopharmacology 104:35-44, 1991). Briefly, the day before the formalin injection, mice were placed individually into clear plastic cylinders for 30 minutes of adaptation. The day of testing 20 μl of 1% formalin was injected into the plantar surface of the left hind paw and the animals were again placed into the plastic cylinder for the behavioural observation. The amount of time, in seconds, the animals spent licking and flinching (L/F) the injected paw for the first 5 min (early phase), and then from 10 to 40 min(late phase) after formalin injection, was used as measurement of intensity of pain. CHF 3381 10-100 mg/kg i.p. and 25-200 mg/kg p.o. or the corresponding vehicles, were administered 15 and 30 min before formalin injection, respectively.

[4] = tested on: carrageenan-induced thermal hyperalgesia; assay: carrageenan-induced thermal hyperalgesia model; assay type: in vivo, rats; settings: for minimum effective dose: given 3 hours after carrageenan
Protocol: In the carrageenan-induced thermal hyperalgesia model, male rats were habituated to the rat plantar test apparatus and thermal hyperalgesia was then assessed as described in the paragraph concerning the CCI model. Briefly, after baseline paw withdrawal latencies were determined, animals received an intraplantar injection of carrageenan (100 μl of a 20 mg/ml solution) into the right hind paw. Paw withdrawal latencies (PWL) were reassessed following the same protocol as above 2.5 hours after carrageenan. (this time point represented the start of peak hyperalgesia) to ascertain that hyperalgesia had developed. CHF 3381 (3-10-30-60 mg/kg i.p. and 10-30-60-100 mg/kg p.o.) was then administered 3 hours post carrageenan and paw withdrawal latencies were taken again at 3.5, 4 and 5 hours post carrageenan. Carrageenan induced a significant reduction of paw withdrawal latency in all animals at 2.5 hours following injection. This hyperalgesia was maintained in vehicle-treated animals for at least five hours after carrageenan. The i.p. and p.o. administration of CHF 3381 at 3 hours after carrageenan, dose-dependently antagonised the maintenance of thermal hyperalgesia with respective minimum effective doses of 10 mg/kg i.p. and 30 mg/kg p.o. (Table 5).

NC(=O)CNC1Cc2ccccc2C1 [CHF 3381, N-2(indanyl)-glicinamide hydrochloride]
flinching and licking behavior during the early and late nociceptive phases [1]: clearly suppressed | TD50 at 15 min ([2]; ip, i.p. administration): 113 mg/kg | TD50 at 15 min ([2]; oral administration): 299 mg/kg | Late phase licking/flinching time ([3]; 10 mg/kg i.p.): 165 ± 26 s | Early phase licking/flinching time ([3]; 10 mg/kg i.p.): 95 ± 8 s | Late phase licking/flinching time ([3]; 25 mg/kg p.o.): 92 ± 25 s | Early phase licking/flinching time ([3]; 25 mg/kg p.o.): 99 ± 8 s | Late phase licking/flinching time ([3]; 30 mg/kg i.p.): 58 ± 1 s | Early phase licking/flinching time ([3]; 30 mg/kg i.p.): 59 ± 9 s | Late phase licking/flinching time ([3]; 50 mg/kg p.o.): 30 ± 9 s | Early phase licking/flinching time ([3]; 50 mg/kg p.o.): 72 ± 7 s | Late phase licking/flinching time ([3]; 60 mg/kg i.p.): 17 ± 5 s | Early phase licking/flinching time ([3]; 60 mg/kg i.p.): 32 ± 7 s | Late phase licking/flinching time ([3]; 100 mg/kg i.p.): 2 ± 2 s | Early phase licking/flinching time ([3]; 100 mg/kg i.p.): 17 ± 4 s | Late phase licking/flinching time ([3]; 100 mg/kg p.o.): 23 ± 16 s | Early phase licking/flinching time ([3]; 100 mg/kg p.o.): 46 ± 7 s | Late phase licking/flinching time ([3]; 200 mg/kg p.o.): 12 ± 10 s | Early phase licking/flinching time ([3]; 200 mg/kg p.o.): 47 ± 4 s | acute and tonic formalin-induced licking response ([3]; mice, 100 mg/kg p.o. and 60 mg/kg i.p.): almost completely blocked | Paw withdrawal latency ([4]; 3 mg/kg i.p. at 3 h, 3.5 h after carrageenan): 5.1 ± 0.60 s | Paw withdrawal latency ([4]; 3 mg/kg i.p. at 3 h, 4.0 h after carrageenan): 6.7 ± 0.64 s | Paw withdrawal latency ([4]; 3 mg/kg i.p. at 3 h, 5.0 h after carrageenan): 8.3 ± 0.50 s | Paw withdrawal latency ([4]; 3 mg/kg i.p. group, 0 h (baseline, before carrageenan and dosing)): 11.2 ± 0.92 s | Paw withdrawal latency ([4]; 3 mg/kg i.p. group, 2.5 h after carrageenan (before dosing at 3 h)): 4.4 ± 0.50 s | Paw withdrawal latency ([4]; 10 mg/kg i.p. at 3 h, 3.5 h after carrageenan): 7.4 ± 0.50 s | Paw withdrawal latency ([4]; 10 mg/kg i.p. at 3 h, 4.0 h after carrageenan): 7.8 ± 0.66 s | Paw withdrawal latency ([4]; 10 mg/kg i.p. at 3 h, 5.0 h after carrageenan): 8.4 ± 0.80 s | Paw withdrawal latency ([4]; 10 mg/kg i.p. group, 0 h (baseline, before carrageenan and dosing)): 11.8 ± 0.49 s | Paw withdrawal latency ([4]; 10 mg/kg i.p. group, 2.5 h after carrageenan (before dosing at 3 h)): 5.1 ± 0.50 s | Paw withdrawal latency ([4]; 10 mg/kg p.o. at 3 h, 3.5 h after carrageenan): 6.65 ± 1.2 s | Paw withdrawal latency ([4]; 10 mg/kg p.o. at 3 h, 4.0 h after carrageenan): 6.90 ± 0.61 s | Paw withdrawal latency ([4]; 10 mg/kg p.o. at 3 h, 5.0 h after carrageenan): 7.29 ± 0.83 s | Paw withdrawal latency ([4]; 10 mg/kg p.o. group, 0 h (baseline, before carrageenan and dosing)): 12.96 ± 1.01 s | Paw withdrawal latency ([4]; 10 mg/kg p.o. group, 2.5 h after carrageenan (before dosing at 3 h)): 4.79 ± 0.71 s | Paw withdrawal latency ([4]; 30 mg/kg i.p. at 3 h, 3.5 h after carrageenan): 6.8 ± 0.70 s | Paw withdrawal latency ([4]; 30 mg/kg i.p. at 3 h, 4.0 h after carrageenan): 8.8 ± 0.80 s | Paw withdrawal latency ([4]; 30 mg/kg i.p. at 3 h, 5.0 h after carrageenan): 8.1 ± 0.80 s | Paw withdrawal latency ([4]; 30 mg/kg i.p. group, 0 h (baseline, before carrageenan and dosing)): 11.3 ± 0.84 s | Paw withdrawal latency ([4]; 30 mg/kg i.p. group, 2.5 h after carrageenan (before dosing at 3 h)): 4.7 ± 0.60 s | Paw withdrawal latency ([4]; 30 mg/kg p.o. at 3 h, 3.5 h after carrageenan): 7.38 ± 0.65 s | Paw withdrawal latency ([4]; 30 mg/kg p.o. at 3 h, 4.0 h after carrageenan): 7.61 ± 0.59 s | Paw withdrawal latency ([4]; 30 mg/kg p.o. at 3 h, 5.0 h after carrageenan): 9.04 ± 0.85 s | Paw withdrawal latency ([4]; 30 mg/kg p.o. group, 0 h (baseline, before carrageenan and dosing)): 11.98 ± 0.71 s | Paw withdrawal latency ([4]; 30 mg/kg p.o. group, 2.5 h after carrageenan (before dosing at 3 h)): 5.78 ± 0.93 s | Paw withdrawal latency ([4]; 60 mg/kg i.p. at 3 h, 3.5 h after carrageenan): 8.0 ± 1.20 s | Paw withdrawal latency ([4]; 60 mg/kg i.p. at 3 h, 4.0 h after carrageenan): 10.4 ± 1.39 s | Paw withdrawal latency ([4]; 60 mg/kg i.p. at 3 h, 5.0 h after carrageenan): 10.7 ± 0.90 s | Paw withdrawal latency ([4]; 60 mg/kg i.p. group, 0 h (baseline, before carrageenan and dosing)): 11.4 ± 0.85 s | Paw withdrawal latency ([4]; 60 mg/kg i.p. group, 2.5 h after carrageenan (before dosing at 3 h)): 4.1 ± 0.50 s | Paw withdrawal latency ([4]; 60 mg/kg p.o. at 3 h, 3.5 h after carrageenan): 8.68 ± 1.16 s | Paw withdrawal latency ([4]; 60 mg/kg p.o. at 3 h, 4.0 h after carrageenan): 8.20 ± 0.85 s | Paw withdrawal latency ([4]; 60 mg/kg p.o. at 3 h, 5.0 h after carrageenan): 8.34 ± 0.81 s | Paw withdrawal latency ([4]; 60 mg/kg p.o. group, 0 h (baseline, before carrageenan and dosing)): 11.98 ± 0.67 s | Paw withdrawal latency ([4]; 60 mg/kg p.o. group, 2.5 h after carrageenan (before dosing at 3 h)): 5.22 ± 0.58 s | reversal of thermal hyperalgesia induced by carrageenan ([4]; 100 mg/kg p.o. and 60 mg/kg i.p.): nearly complete reversal | Paw withdrawal latency ([4]; 100 mg/kg p.o. at 3 h, 3.5 h after carrageenan): 10.31 ± 1.20 s | Paw withdrawal latency ([4]; 100 mg/kg p.o. at 3 h, 4.0 h after carrageenan): 8.72 ± 0.75 s | Paw withdrawal latency ([4]; 100 mg/kg p.o. at 3 h, 5.0 h after carrageenan): 9.34 ± 0.85 s | Paw withdrawal latency ([4]; 100 mg/kg p.o. group, 0 h (baseline, before carrageenan and dosing)): 13.24 ± 0.75 s | Paw withdrawal latency ([4]; 100 mg/kg p.o. group, 2.5 h after carrageenan (before dosing at 3 h)): 5.52 ± 0.96 s | minimum effective dose ([4]; i.p.): 10 mg/kg | minimum effective dose ([4]; p.o.): 30 mg/kg

Source: patent US20050222266A1, “2-indanylamino derivatives for the therapy of chronic pain” (priority 2002, published 2005)
